According to ChEMBL document CHEMBL5653615 (J Biol Chem, 2013):

Experiments:
[1] = molecular target: RAC-alpha serine/threonine-protein kinase (Homo sapiens) (UniProt P31749); assay: Inhibition of human AKT1 at 1.82 nM by HotSpot assay relative to control
[2] = molecular target: Serine/threonine-protein kinase 33 (Homo sapiens) (UniProt Q9BYT3); assay: Inhibition of human STK33 at 1.82 nM by HotSpot assay relative to control
[3] = molecular target: Homeodomain-interacting protein kinase 1 (Homo sapiens) (UniProt Q86Z02); assay: Inhibition of human HIPK1 at 1.82 nM by HotSpot assay relative to control
[4] = molecular target: T1, Serine/threonine-protein kinase Nek11 (Homo sapiens) (UniProt Q8NG66); assay: Inhibition of human NEK11 at 1.82 nM by HotSpot assay relative to control
T1 sequence (whole entry): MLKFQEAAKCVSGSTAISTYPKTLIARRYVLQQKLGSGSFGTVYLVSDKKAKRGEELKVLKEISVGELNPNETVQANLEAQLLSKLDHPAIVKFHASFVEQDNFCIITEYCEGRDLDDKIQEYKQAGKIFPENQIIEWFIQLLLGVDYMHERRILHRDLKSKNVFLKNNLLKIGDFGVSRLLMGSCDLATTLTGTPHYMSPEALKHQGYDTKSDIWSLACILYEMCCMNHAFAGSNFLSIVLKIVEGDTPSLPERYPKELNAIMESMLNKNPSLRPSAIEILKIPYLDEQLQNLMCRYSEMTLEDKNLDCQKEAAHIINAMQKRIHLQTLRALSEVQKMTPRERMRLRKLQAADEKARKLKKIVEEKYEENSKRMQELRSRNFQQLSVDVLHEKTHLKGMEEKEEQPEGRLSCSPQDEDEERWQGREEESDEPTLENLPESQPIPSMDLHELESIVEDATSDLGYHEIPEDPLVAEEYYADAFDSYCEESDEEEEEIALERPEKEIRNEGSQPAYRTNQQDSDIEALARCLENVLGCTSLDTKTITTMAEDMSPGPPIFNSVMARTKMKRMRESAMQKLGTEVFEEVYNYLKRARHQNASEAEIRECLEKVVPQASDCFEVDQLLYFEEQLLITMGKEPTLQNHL

[5] = molecular target: Dual specificity mitogen-activated protein kinase kinase 1 (Homo sapiens) (UniProt Q02750); assay: Inhibition of human MEK1 at 1.82 nM by HotSpot assay relative to control
Dual specificity mitogen-activated protein kinase kinase 1 (Homo sapiens), sequence (Q02750 whole entry): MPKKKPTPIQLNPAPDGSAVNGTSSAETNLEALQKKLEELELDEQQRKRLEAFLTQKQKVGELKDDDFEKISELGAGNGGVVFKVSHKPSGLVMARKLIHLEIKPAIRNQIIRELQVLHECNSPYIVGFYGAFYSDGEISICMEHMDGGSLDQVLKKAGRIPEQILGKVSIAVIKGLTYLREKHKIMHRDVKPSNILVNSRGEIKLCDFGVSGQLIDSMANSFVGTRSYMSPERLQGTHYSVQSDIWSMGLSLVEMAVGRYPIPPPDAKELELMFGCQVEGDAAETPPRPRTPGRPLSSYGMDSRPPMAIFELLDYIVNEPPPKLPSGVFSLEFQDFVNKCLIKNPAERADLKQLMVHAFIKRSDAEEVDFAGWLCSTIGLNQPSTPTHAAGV

[6] = molecular target: Tyrosine-protein kinase BTK (Homo sapiens) (UniProt Q06187); assay: Inhibition of human BTK at 18.6 nM by HotSpot assay relative to control
Tyrosine-protein kinase BTK (Homo sapiens), sequence (Q06187 whole entry): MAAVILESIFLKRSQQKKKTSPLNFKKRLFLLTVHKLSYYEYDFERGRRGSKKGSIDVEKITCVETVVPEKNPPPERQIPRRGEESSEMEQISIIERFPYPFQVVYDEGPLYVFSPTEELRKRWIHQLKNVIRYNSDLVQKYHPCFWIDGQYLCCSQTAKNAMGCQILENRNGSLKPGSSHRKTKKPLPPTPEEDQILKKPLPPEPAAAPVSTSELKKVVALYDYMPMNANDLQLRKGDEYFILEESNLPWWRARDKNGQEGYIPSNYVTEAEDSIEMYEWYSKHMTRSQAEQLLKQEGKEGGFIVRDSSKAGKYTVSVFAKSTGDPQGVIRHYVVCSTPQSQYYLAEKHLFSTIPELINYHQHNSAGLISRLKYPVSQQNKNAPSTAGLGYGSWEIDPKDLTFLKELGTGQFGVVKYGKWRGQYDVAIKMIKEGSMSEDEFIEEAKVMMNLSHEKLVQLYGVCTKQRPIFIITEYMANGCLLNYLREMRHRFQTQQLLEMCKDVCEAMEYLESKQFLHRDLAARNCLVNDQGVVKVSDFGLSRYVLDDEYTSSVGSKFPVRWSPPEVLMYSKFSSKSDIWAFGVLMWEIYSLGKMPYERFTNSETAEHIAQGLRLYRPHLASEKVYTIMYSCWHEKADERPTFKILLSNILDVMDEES

[7] = molecular target: Calcium/calmodulin-dependent protein kinase type II subunit delta (Homo sapiens) (UniProt Q13557); assay: Inhibition of human CAMK2d at 18.6 nM by HotSpot assay relative to control
[8] = molecular target: Vascular endothelial growth factor receptor 2 (Homo sapiens) (UniProt P35968); assay: Inhibition of human KDR at 18.6 nM by HotSpot assay relative to control
Vascular endothelial growth factor receptor 2 (Homo sapiens), sequence (P35968 whole entry): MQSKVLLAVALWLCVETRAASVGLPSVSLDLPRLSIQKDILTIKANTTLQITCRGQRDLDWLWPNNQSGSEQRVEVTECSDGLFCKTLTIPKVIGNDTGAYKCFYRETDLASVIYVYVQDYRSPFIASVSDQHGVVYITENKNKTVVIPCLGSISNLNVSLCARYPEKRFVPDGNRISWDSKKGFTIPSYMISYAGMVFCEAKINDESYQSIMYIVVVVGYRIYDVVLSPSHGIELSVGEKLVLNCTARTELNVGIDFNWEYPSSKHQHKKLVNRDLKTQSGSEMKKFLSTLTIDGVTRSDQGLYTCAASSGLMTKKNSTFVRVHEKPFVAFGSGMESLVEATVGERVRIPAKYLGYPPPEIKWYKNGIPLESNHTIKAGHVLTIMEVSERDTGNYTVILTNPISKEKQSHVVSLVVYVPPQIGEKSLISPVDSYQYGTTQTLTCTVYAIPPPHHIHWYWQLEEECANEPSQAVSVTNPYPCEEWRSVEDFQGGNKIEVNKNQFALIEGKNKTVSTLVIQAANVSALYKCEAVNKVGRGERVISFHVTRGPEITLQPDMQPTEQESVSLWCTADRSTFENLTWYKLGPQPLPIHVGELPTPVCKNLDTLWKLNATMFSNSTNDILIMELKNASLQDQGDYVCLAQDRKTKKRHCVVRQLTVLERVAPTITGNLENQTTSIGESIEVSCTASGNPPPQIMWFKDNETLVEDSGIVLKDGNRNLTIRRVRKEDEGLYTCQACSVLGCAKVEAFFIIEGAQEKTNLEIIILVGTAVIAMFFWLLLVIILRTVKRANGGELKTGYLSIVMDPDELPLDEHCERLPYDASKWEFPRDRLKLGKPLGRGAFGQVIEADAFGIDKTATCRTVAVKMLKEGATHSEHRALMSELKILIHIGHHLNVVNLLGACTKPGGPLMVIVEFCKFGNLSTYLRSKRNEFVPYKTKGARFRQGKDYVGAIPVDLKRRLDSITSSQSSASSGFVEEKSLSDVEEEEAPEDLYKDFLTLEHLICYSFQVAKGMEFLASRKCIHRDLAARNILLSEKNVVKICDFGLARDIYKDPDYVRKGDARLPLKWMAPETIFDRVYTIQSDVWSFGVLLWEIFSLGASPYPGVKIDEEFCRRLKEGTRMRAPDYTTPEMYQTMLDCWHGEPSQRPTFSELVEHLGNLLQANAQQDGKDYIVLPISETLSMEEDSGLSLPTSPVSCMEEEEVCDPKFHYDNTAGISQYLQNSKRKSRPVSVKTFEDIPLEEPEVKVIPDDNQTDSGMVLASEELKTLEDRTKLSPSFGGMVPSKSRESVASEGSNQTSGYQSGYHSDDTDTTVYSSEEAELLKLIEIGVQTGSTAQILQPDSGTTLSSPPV

[9] = molecular target: Dual specificity protein kinase CLK2 (Homo sapiens) (UniProt P49760); assay: Inhibition of human CLK2 at 18.6 nM by HotSpot assay relative to control
Dual specificity protein kinase CLK2 (Homo sapiens), sequence (P49760 whole entry, looked up): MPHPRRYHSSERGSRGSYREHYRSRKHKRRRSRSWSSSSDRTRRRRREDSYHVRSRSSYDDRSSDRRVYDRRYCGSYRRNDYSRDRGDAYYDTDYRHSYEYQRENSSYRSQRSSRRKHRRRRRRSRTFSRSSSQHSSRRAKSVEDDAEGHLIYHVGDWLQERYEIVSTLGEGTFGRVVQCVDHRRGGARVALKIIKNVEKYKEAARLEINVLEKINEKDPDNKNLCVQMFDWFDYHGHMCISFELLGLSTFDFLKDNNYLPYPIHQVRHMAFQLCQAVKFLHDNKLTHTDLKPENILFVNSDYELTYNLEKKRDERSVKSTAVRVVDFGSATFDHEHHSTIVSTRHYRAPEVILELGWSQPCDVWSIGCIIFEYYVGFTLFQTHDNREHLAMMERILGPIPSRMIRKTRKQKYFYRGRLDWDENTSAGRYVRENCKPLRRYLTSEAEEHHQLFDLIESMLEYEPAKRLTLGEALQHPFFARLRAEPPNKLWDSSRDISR

[10] = molecular target: Mitogen-activated protein kinase kinase kinase 20 (Homo sapiens) (UniProt Q9NYL2); assay: Inhibition of human MLTK at 18.6 nM by HotSpot assay relative to control
Mitogen-activated protein kinase kinase kinase 20 (Homo sapiens), sequence (Q9NYL2 2-800 limits assumed): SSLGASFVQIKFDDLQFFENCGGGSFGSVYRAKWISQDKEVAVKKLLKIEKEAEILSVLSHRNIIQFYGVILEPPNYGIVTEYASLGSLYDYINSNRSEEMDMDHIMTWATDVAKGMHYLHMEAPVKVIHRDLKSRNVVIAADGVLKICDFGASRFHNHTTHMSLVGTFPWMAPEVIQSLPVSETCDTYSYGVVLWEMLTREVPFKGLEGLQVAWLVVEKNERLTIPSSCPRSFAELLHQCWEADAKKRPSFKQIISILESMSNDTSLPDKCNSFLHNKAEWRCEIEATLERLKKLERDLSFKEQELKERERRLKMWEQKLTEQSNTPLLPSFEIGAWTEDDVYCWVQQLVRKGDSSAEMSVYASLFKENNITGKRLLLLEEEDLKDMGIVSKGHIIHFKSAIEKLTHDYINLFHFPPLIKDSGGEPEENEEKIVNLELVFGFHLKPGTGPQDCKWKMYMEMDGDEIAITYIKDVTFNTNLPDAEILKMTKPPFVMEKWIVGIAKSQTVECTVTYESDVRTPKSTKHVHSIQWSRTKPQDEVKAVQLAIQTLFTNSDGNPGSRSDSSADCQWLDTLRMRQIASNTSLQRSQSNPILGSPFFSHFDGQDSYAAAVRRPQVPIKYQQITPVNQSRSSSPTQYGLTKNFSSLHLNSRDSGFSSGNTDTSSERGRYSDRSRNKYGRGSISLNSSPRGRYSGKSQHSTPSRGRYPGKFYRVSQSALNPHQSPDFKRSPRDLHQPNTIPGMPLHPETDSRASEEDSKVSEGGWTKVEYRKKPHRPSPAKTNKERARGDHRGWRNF

[11] = molecular target: T2, Ephrin type-A receptor 3 (Homo sapiens) (UniProt P29320); assay: Inhibition of human EPHA3 at 18.6 nM by HotSpot assay relative to control
T2 sequence (whole entry): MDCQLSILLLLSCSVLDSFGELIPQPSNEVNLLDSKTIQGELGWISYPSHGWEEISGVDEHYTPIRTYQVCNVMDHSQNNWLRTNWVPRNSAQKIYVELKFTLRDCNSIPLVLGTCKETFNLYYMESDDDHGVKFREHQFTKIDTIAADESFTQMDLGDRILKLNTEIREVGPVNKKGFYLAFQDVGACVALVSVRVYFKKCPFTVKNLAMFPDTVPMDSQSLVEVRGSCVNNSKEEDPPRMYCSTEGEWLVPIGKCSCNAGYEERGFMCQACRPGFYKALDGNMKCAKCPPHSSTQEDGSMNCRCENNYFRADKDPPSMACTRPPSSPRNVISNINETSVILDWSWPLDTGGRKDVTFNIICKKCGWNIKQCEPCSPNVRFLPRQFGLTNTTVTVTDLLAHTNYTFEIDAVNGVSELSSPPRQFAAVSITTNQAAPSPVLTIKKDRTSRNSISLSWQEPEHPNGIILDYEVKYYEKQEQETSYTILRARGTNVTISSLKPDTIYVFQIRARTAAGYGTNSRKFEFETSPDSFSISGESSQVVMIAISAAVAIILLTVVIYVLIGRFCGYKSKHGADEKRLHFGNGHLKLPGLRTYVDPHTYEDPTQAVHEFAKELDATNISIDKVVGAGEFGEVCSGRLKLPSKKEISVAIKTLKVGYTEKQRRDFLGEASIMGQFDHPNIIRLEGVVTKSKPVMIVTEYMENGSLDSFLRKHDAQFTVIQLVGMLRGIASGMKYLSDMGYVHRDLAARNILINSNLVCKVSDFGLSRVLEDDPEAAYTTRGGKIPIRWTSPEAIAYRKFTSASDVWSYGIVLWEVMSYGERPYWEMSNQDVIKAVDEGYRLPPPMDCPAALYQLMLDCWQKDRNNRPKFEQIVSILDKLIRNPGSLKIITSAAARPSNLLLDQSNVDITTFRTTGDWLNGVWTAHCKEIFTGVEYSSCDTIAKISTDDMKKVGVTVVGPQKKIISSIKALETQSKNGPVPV

[12] = molecular target: Calcium/calmodulin-dependent protein kinase type II subunit alpha (Homo sapiens) (UniProt Q9UQM7); assay: Inhibition of human CAMK2a at 18.6 nM by HotSpot assay relative to control
Calcium/calmodulin-dependent protein kinase type II subunit alpha (Homo sapiens), sequence (Q9UQM7 whole entry): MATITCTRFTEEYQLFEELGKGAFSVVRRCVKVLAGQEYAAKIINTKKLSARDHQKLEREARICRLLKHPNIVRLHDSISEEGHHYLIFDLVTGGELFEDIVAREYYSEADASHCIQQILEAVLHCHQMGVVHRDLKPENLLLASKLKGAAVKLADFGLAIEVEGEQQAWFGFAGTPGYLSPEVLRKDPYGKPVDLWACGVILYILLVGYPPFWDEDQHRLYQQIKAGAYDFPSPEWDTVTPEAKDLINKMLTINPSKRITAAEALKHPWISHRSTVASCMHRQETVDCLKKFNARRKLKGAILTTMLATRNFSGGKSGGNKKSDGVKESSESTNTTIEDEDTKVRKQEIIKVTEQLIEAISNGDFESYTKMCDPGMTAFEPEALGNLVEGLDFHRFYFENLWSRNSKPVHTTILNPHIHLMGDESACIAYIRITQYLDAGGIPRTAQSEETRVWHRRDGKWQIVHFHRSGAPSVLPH

[13] = molecular target: T3, Serine/threonine-protein kinase Sgk2 (Homo sapiens) (UniProt Q9HBY8); assay: Inhibition of human SGK2 at 18.6 nM by HotSpot assay relative to control
T3 sequence (whole entry): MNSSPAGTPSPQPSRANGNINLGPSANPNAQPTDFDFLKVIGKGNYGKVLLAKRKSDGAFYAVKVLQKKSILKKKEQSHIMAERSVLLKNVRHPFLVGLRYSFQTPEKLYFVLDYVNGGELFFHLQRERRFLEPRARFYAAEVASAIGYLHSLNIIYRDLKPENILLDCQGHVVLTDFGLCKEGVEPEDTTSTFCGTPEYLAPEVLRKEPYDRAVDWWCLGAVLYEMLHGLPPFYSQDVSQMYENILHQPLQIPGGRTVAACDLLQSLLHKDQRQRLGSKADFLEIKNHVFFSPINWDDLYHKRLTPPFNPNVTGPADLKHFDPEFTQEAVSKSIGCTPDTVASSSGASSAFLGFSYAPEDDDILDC

Serine/threonine-protein kinase 33 (Homo sapiens), sequence (Q9BYT3 whole entry, looked up): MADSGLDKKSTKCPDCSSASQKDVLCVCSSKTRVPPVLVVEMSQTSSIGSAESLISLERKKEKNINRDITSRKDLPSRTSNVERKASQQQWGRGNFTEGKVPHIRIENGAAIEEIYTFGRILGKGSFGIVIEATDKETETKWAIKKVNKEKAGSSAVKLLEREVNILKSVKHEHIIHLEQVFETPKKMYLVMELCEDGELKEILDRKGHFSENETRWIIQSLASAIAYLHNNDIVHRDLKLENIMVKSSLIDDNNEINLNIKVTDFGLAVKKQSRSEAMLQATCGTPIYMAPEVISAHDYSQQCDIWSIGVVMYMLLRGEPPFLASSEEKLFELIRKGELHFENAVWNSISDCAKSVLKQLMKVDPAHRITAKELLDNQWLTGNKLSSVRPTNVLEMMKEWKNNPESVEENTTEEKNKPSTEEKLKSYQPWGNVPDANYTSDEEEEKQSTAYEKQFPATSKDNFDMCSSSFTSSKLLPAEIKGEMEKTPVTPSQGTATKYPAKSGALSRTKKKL

Structure (SMILES)	inhibition [1] [%]	inhibition [2] [%]	inhibition [3] [%]	inhibition [4] [%]	inhibition [5] [%]	inhibition [6] [%]	inhibition [7] [%]	inhibition [8] [%]	inhibition [9] [%]	inhibition [10] [%]	inhibition [11] [%]	inhibition [12] [%]	inhibition [13] [%]
C[C@@]1(C(=O)Nc2ccc(F)nc2)CCCN1c1nc(Nc2cc(C3CC3)n[nH]2)c2cccn2n1	1.89	1.95	-6.64	-5.31	-6.3								
C[C@]1(O)C[C@@H](c2nc(-c3ccc4ccc(-c5ccccc5)nc4c3)c3c(N)nccn32)C1						-1.94	0.37	-3.85	4.4	-2.34	2.95	-4.3	-3.95
